Experimental data published in PubChem BioAssay (NCI).
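Following 48 hours of exposure in 96-well plates, responses at five concentrations were used to interpolate endpoints linearly. Abbreviation: GI50, concentration required for 50% inhibition of growth. TGI denotes the concentration required for complete inhibition of growth.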

Legend:
Test in all cases: growth of human tumour cells (NCI), 48 h
786-0 renal = tested on: 786-0 renal
A498 renal = tested on: A498 renal
A549 NSCLC = tested on: A549 NSCLC
ACHN renal = tested on: ACHN renal
BT-549 breast = tested on: BT-549 breast
CAKI-1 renal = tested on: CAKI-1 renal
CCRF-CEM leukemia = tested on: CCRF-CEM leukemia
COLO 205 colon = tested on: COLO 205 colon
DU-145 prostate = tested on: DU-145 prostate
EKVX NSCLC = tested on: EKVX NSCLC
HCT-116 colon = tested on: HCT-116 colon
HCT-15 colon = tested on: HCT-15 colon
HL-60(TB) leukemia = tested on: HL-60(TB) leukemia
HOP-62 NSCLC = tested on: HOP-62 NSCLC
HOP-92 NSCLC = tested on: HOP-92 NSCLC
HS 578T breast = tested on: HS 578T breast
HT29 colon = tested on: HT29 colon
IGROV1 ovarian = tested on: IGROV1 ovarian
K-562 leukemia = tested on: K-562 leukemia
KM12 colon = tested on: KM12 colon
LOX IMVI melanoma = tested on: LOX IMVI melanoma
M14 melanoma = tested on: M14 melanoma
MALME-3M melanoma = tested on: MALME-3M melanoma
MCF7 breast = tested on: MCF7 breast
MDA-MB-231 breast = tested on: MDA-MB-231 breast
MDA-MB-435 = tested on: MDA-MB-435
MOLT-4 leukemia = tested on: MOLT-4 leukemia
NCI-H226 lung = tested on: NCI-H226 lung

SMILES: COc1ccc2c(c1)OCC1c3cc(O)ccc3OC21 (stereo unspecified)
- GI50 (786-0 renal): 78.9 µM
- TGI (786-0 renal): > 100 µM
- GI50 (A498 renal): 40.2 µM
- TGI (A498 renal): > 100 µM
- GI50 (A549 NSCLC): 60.9 µM
- TGI (A549 NSCLC): > 100 µM
- GI50 (ACHN renal): 35.8 µM
- TGI (ACHN renal): > 100 µM
- GI50 (BT-549 breast): 39 µM
- TGI (BT-549 breast): > 100 µM
- GI50 (CAKI-1 renal): 32.5 µM
- TGI (CAKI-1 renal): > 100 µM
- GI50 (CCRF-CEM leukemia): 25.1 µM
- TGI (CCRF-CEM leukemia): > 100 µM
- GI50 (COLO 205 colon): 32.7 µM
- TGI (COLO 205 colon): > 100 µM
- GI50 (DU-145 prostate): 75.8 µM
- TGI (DU-145 prostate): > 100 µM
- GI50 (EKVX NSCLC): 27.8 µM
- TGI (EKVX NSCLC): > 100 µM
- GI50 (HCT-116 colon): 51.4 µM
- TGI (HCT-116 colon): > 100 µM
- GI50 (HCT-15 colon): 40.6 µM
- TGI (HCT-15 colon): > 100 µM
- GI50 (HL-60(TB) leukemia): 3.16 µM
- TGI (HL-60(TB) leukemia): 27.3 µM
- GI50 (HOP-62 NSCLC): > 100 µM
- TGI (HOP-62 NSCLC): > 100 µM
- GI50 (HOP-92 NSCLC): 39.6 µM
- TGI (HOP-92 NSCLC): > 100 µM
- GI50 (HS 578T breast): 41.2 µM
- TGI (HS 578T breast): > 100 µM
- GI50 (HT29 colon): 47.5 µM
- TGI (HT29 colon): > 100 µM
- GI50 (IGROV1 ovarian): 36 µM
- TGI (IGROV1 ovarian): 99.4 µM
- GI50 (K-562 leukemia): 63.5 µM
- TGI (K-562 leukemia): > 100 µM
- GI50 (KM12 colon): 38.7 µM
- TGI (KM12 colon): > 100 µM
- GI50 (LOX IMVI melanoma): 42.1 µM
- TGI (LOX IMVI melanoma): > 100 µM
- GI50 (M14 melanoma): 72.5 µM
- TGI (M14 melanoma): > 100 µM
- GI50 (MALME-3M melanoma): 60.2 µM
- TGI (MALME-3M melanoma): > 100 µM
- GI50 (MCF7 breast): 12.8 µM
- TGI (MCF7 breast): 86.4 µM
- GI50 (MDA-MB-231 breast): 13.7 µM
- TGI (MDA-MB-231 breast): 92.2 µM
- GI50 (MDA-MB-435): 44.8 µM
- TGI (MDA-MB-435): > 100 µM
- GI50 (MOLT-4 leukemia): 35.4 µM
- TGI (MOLT-4 leukemia): > 100 µM
- GI50 (NCI-H226 lung): 18.6 µM
- TGI (NCI-H226 lung): > 100 µM
